molecular target: T1, Calpain small subunit 1 (Sus scrofa, UniProt P04574); assay: Ability to displace labelledcasein from calpain I in porcine erythrocytes; Noninhibitor; type: cell-based
T1 sequence (P04574 whole entry): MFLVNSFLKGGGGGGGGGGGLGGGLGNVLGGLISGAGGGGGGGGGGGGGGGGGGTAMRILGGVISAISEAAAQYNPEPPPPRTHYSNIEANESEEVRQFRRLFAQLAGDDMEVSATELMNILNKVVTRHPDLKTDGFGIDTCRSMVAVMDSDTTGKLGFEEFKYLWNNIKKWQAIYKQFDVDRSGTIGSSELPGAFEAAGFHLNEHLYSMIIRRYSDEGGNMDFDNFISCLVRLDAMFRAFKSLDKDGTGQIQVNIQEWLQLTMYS

Q: For `COC(=O)[C@H](Cc1ccccc1)NC(=O)c1ccccc1-c1ccccc1C(=O)O`, which IC50 is on record?
A: No inhibition

Q: With `COC(=O)[C@H](Cc1ccc(O)cc1)NC(=O)c1ccccc1-c1ccccc1C(=O)N[C@@H](Cc1ccc(O)cc1)C(=O)OC` as the molecule, how does the IC50 read?
A: No inhibition

Q: With `COC(=O)[C@H](Cc1c[nH]cn1)NC(=O)c1ccccc1-c1ccccc1C(=O)N[C@@H](Cc1c[nH]cn1)C(=O)OC` as the molecule, how does the IC50 read?
A: No inhibition

Q: Which IC50 does the source give for `CCC(C)[C@H](NC(=O)c1ccccc1-c1ccccc1C(=O)N[C@H](C(=O)OC)C(C)CC)C(=O)OC` (some centres not stated) here?
A: No inhibition

Q: Which IC50 does the source give for `COC(=O)[C@H](C)NC(=O)c1ccccc1-c1ccccc1C(=O)N[C@@H](C)C(=O)OC` here?
A: No inhibition

molecular target: not listed separately; assay: Displacement of casein from calpain 1 in porcine erythrocytes; type: cell-based, Sus scrofa

Q: Which IC50 does the source give for `COC(=O)[C@@H](NC(=O)[C@H](Cc1ccccc1)NC(=O)c1ccccc1-c1ccccc1C(=O)N[C@@H](Cc1ccccc1)C(=O)Nc1ccccc1-c1ccccc1NC(=O)[C@H](C)NC(=O)OCC1c2ccccc2-c2ccccc21)C(C)C` here?
A: 41 µM

Q: Which IC50 does the source give for `O=C(N[C@@H](Cc1ccc(O)cc1)C(=O)O)c1ccccc1-c1ccccc1C(=O)N[C@@H](Cc1ccc(O)cc1)C(=O)O` here?
A: 200 µM

Q: Which IC50 does the source give for `C=CCO[C@H]1O[C@H](CNC(=O)c2ccccc2-c2ccccc2C(=O)N[C@@H](Cc2ccc(O)cc2)C(=O)OC)C=C[C@@H]1CC(=O)N[C@@H](Cc1ccccc1)C(=O)N[C@@H](CC(C)C)C(=O)NC` here?
A: 116 µM

Q: With `COC(=O)[C@H](Cc1ccccc1)NC(=O)c1ccccc1-c1ccccc1C(=O)N[C@@H](Cc1ccccc1)C(=O)OC` as the molecule, how does the IC50 read?
A: 0.064 µM

Q: With `COC(=O)[C@H](Cc1ccccc1)NC(=O)[C@H](Cc1ccccc1)NC(=O)c1ccccc1-c1ccccc1C(=O)N[C@@H](Cc1ccccc1)C(=O)N[C@@H](Cc1ccccc1)C(=O)OC` as the molecule, how does the IC50 read?
A: 0.098 µM

Q: For `COC(=O)[C@H](Cc1ccccc1)NC(=O)[C@H](CCSC)NC(=O)c1ccccc1-c1ccccc1C(=O)N[C@@H](CCSC)C(=O)N[C@@H](Cc1c[nH]c2ccccc12)C(=O)OC`, which IC50 is on record?
A: 77 µM

Q: Which IC50 does the source give for `COC(=O)[C@@H](NC(=O)c1ccccc1-c1ccccc1C(=O)N[C@H](C(=O)OC)C(C)C)C(C)C` here?
A: 7 µM

Q: For `COC(=O)[C@H](Cc1ccccc1)NC(=O)[C@@H](NC(=O)c1ccccc1-c1ccccc1C(=O)N[C@H](C(=O)N[C@@H](Cc1ccccc1)C(=O)OC)C(C)C)C(C)C`, which IC50 is on record?
A: 0.024 µM

Q: Which IC50 does the source give for `COC(=O)[C@H](Cc1c[nH]c2ccccc12)NC(=O)c1ccccc1-c1ccccc1C(=O)N[C@@H](Cc1c[nH]c2ccccc12)C(=O)OC` here?
A: 0.037 µM

Q: For `O=C(N[C@@H](Cc1ccccc1)C(=O)O)c1ccccc1-c1ccccc1C(=O)N[C@@H](Cc1ccccc1)C(=O)O`, which IC50 is on record?
A: 0.07 µM

molecular target: T1, Calpain small subunit 1; assay: Ability to displace labelledcasein from calpain I in porcine erythrocytes; Weak inhibitor; type: cell-based

Q: With `CNC(=O)[C@@H](Cc1ccccc1)NC(=O)[C@H](Cc1ccccc1)NC(=O)c1ccccc1-c1ccccc1C(=O)N[C@@H](CC(C)C)C(=O)N[C@@H](CCSC)C(=O)OC` as the molecule, how does the IC50 read?
A: Weak inhibitor

Q: With `COC(=O)[C@H](Cc1ccc(O)cc1)NC(=O)c1ccccc1-c1ccccc1C(=O)N[C@@H](Cc1ccccc1)C(=O)N[C@@H](CCSC)C(=O)OC` as the molecule, how does the IC50 read?
A: Weak inhibitor
